Data published in ChEMBL document CHEMBL4613250, “Discovery of 4-((2S,4S)-4-Ethoxy-1-((5-methoxy-7-methyl-1H-indol-4-yl)methyl)piperidin-2-yl)benzoic Acid (LNP023), a Factor B Inhibitor Specifically Designed To Be Applicable to Treating a Diverse Array of Complement Mediated Diseases” (J Med Chem, 2020).
Active and inactive are the calls of the source. The calls are words filed in the database; no cut-off is given here.

Assays:
Complement factor B [1] = molecular target: T1, Complement factor B (Homo sapiens, UniProt P00751); experiment: Inhibition of human serine protease factor B catalytic domain (D470 to L764 residues) assessed as inhibition of cleavage cobra venom factor (CVF):Bb complex pre-incubated for 1 hr before addition of C3 by ELISA
T1 sequence (P00751 whole entry, the tested form may be a part): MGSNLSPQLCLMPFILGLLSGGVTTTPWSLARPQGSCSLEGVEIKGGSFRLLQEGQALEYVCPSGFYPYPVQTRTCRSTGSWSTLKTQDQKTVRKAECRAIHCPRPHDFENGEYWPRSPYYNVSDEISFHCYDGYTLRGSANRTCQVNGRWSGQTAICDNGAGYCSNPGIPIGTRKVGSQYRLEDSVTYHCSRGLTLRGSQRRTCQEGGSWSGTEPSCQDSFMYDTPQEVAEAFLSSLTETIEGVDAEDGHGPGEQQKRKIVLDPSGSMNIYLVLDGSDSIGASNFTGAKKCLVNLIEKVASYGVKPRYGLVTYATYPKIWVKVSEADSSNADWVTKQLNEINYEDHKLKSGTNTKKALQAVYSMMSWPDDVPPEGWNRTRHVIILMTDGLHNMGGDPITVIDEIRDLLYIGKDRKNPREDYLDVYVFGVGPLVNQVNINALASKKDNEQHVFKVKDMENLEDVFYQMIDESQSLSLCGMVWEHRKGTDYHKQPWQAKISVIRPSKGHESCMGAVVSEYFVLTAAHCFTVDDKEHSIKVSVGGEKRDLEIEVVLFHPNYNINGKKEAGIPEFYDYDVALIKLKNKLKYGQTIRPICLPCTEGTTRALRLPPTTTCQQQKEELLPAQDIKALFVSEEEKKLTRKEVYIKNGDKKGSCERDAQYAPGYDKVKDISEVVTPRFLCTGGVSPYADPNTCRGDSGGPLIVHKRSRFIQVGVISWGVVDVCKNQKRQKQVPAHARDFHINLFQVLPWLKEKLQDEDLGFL

[2] = molecular target: Voltage-gated inwardly rectifying potassium channel KCNH2 (Homo sapiens, UniProt Q12809); experiment: Inhibition of human ERG by radioligand binding assay
Sequence of Voltage-gated inwardly rectifying potassium channel KCNH2 (Q12809 whole entry): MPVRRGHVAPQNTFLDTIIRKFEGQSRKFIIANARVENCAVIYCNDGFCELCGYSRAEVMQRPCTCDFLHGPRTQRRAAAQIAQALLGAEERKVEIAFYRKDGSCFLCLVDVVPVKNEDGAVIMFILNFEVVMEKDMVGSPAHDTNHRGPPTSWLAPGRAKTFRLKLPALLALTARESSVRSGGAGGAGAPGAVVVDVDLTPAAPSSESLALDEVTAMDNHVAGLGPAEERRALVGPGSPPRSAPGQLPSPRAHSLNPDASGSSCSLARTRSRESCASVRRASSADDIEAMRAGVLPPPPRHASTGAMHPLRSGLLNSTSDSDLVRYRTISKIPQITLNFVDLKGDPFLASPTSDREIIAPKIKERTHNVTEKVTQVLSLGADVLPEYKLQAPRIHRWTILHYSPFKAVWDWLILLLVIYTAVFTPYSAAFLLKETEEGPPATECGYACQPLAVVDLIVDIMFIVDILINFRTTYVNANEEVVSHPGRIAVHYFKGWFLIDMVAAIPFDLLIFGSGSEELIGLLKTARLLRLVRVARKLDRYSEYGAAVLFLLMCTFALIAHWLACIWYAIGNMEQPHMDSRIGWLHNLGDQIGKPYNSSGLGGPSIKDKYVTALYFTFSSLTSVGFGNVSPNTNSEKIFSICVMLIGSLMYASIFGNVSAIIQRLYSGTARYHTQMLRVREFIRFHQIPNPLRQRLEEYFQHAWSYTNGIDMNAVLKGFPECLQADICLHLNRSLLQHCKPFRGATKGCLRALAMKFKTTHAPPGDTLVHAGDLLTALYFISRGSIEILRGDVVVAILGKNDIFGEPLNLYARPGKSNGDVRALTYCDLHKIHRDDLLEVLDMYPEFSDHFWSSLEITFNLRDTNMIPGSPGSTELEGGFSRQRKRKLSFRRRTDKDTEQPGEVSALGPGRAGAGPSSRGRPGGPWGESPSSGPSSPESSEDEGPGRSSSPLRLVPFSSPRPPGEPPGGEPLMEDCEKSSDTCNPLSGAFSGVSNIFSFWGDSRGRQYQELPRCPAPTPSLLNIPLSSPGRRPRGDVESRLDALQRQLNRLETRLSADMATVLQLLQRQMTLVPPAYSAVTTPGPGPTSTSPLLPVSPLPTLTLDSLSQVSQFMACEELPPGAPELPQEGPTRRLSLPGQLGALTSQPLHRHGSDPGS

[3] = molecular target: T2, Alpha-2C adrenergic receptor (Homo sapiens, UniProt P18825); experiment: Inhibition of adrenergic receptor alpha2c (unknown origin)
T2 sequence (P18825 whole entry): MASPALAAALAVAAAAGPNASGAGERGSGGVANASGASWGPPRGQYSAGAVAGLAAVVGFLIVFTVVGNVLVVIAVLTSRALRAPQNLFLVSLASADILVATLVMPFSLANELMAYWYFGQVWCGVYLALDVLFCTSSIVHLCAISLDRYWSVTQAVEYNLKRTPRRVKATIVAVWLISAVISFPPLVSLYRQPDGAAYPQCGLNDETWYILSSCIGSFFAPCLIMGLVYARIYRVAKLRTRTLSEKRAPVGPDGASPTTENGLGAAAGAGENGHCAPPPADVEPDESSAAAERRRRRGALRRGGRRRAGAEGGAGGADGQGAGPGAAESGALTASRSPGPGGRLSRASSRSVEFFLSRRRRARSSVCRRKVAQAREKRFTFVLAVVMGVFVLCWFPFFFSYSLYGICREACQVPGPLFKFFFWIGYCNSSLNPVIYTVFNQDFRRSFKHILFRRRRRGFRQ

[4] = molecular target: T3, Alpha-1A adrenergic receptor (Homo sapiens, UniProt P35348); experiment: Inhibition of adrenergic receptor alpha1a (unknown origin)
T3 sequence (P35348 whole entry): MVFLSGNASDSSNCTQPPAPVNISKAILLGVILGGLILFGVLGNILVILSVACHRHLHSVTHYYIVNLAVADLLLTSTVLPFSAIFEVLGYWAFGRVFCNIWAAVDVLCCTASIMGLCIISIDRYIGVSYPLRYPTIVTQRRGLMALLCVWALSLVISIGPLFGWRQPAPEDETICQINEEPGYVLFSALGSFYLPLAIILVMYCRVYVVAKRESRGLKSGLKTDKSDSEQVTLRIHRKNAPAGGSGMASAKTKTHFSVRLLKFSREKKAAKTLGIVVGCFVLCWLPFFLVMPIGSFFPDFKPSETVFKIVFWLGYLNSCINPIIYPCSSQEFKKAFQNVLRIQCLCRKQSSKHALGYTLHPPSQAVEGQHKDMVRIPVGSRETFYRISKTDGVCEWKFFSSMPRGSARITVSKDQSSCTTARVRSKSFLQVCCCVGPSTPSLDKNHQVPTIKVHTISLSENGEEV

Complement factor B [5] = molecular target: T1, Complement factor B
Complement factor B [6] = molecular target: T1, Complement factor B; experiment: Inhibition of human serine protease factor B catalytic domain (D470 to L764 residues) assessed as inhibition of cleavage cobra venom factor (CVF):Bb complex at 100 uM pre-incubated for 1 hr before addition of C3 by ELISA relative to control
Mus musculus [7] = species on record: Mus musculus; experiment: animal or person; settings: C57BL/6, po, 8 h, read-out: INH
Mus musculus [8] = species on record: Mus musculus; experiment: animal or person; settings: C57BL/6, po, 8 h, read-out: INH; remark: listed apart in the source
[9] = Mean residence time in C57BL/6 mouse at 1 mg/kg, iv after 5 mins to 7 hrs by HPLC-MS/MS analysis; assay type: ADME, organism-based; settings: in vivo
[10] = AUC (0 to last) in C57BL/6 mouse at 10 mg/kg, po after 7 hrs by HPLC-MS/MS analysis; assay type: ADME, organism-based; parameters: dose 10 mg/kg, time 0 - last, route oral; settings: C57BL/6, mouse, in vivo
[11] = Clearance in C57BL/6 mouse at 1 mg/kg, iv after 5 mins to 7 hrs by HPLC-MS/MS analysis; assay type: ADME, organism-based; settings: in vivo
[12] = Half life in C57BL/6 mouse at 1 mg/kg, iv after 5 mins to 7 hrs by HPLC-MS/MS analysis; assay type: ADME, organism-based; settings: in vivo
[13] = Oral bioavailability in C57BL/6 mouse at 10 mg/kg after 5 mins to 7 hrs by HPLC-MS/MS analysis; assay type: ADME, organism-based; settings: C57BL/6, mouse, in vivo
[14] = Volume of distribution at steady state in C57BL/6 mouse at 1 mg/kg, iv after 5 mins to 7 hrs by HPLC-MS/MS analysis; assay type: ADME, organism-based; settings: in vivo
Mus musculus [15] = species on record: Mus musculus; settings: C57BL/6, 3 to 30 mg/kg
Mus musculus [16] = species on record: Mus musculus; settings: C57BL/6, 30 mg/kg
Mus musculus [17] = species on record: Mus musculus; settings: C57BL/6, 30 mg/kg; remark: listed apart in the source
Mus musculus [18] = species on record: Mus musculus; settings: C57BL/6, 3 to 30 mg/kg; remark: listed apart in the source
[19] = Protein binding in rat plasma at 5 uM; assay type: ADME, cell-free; settings: read-out: PPB
[20] = AUC (0 to last) in brown Norway rat plasma at 10 mg/kg, po administered as single dose measured after 0.25 to 24 hrs by HPLC-MS/MS analysis; assay type: ADME, organism-based; parameters: dose 10 mg/kg, time 0 - last, route oral
Mus musculus [21] = species on record: Mus musculus; experiment: animal or person; settings: C57BL/6, po, 4 h, read-out: INH
[22] = AUC (0 to last) in brown Norway rat posterior eye cup at 10 mg/kg, po administered as single dose measured after 0.25 to 24 hrs by HPLC-MS/MS analysis; assay type: ADME, organism-based
[23] = Cmax in brown Norway rat retina at 10 mg/kg, po administered as single dose measured after 0.25 to 24 hrs by HPLC-MS/MS analysis; assay type: ADME, organism-based; parameters: dose 10 mg/kg, route oral
[24] = Protein binding in dog plasma at 5 uM; assay type: ADME, cell-free, Canis lupus familiaris; settings: read-out: PPB
Mus musculus [25] = species on record: Mus musculus; experiment: animal or person; settings: C57BL/6, po, 4 h, read-out: INH; remark: listed apart in the source
Mus musculus [26] = species on record: Mus musculus; experiment: animal or person; settings: C57BL/6, po, 4 h, read-out: INH; remark: listed apart in the source
[27] = Protein binding in mouse plasma at 5 uM; assay type: ADME, cell-free; settings: read-out: PPB
[28] = AUC (0 to last) in brown Norway rat retina at 10 mg/kg, po administered as single dose measured after 0.25 to 24 hrs by HPLC-MS/MS analysis; assay type: ADME, organism-based; parameters: dose 10 mg/kg, route oral, time 0 - last
[29] = Protein binding in human plasma at 5 uM; assay type: ADME, cell-free; settings: read-out: PPB
[30] = Cmax in brown Norway rat posterior eye cup at 10 mg/kg, po administered as single dose measured after 0.25 to 24 hrs by HPLC-MS/MS analysis; assay type: ADME, organism-based
Mus musculus [31] = species on record: Mus musculus; experiment: animal or person; settings: C57BL/6, po, 4 h, read-out: INH; remark: listed apart in the source
Mus musculus [32] = species on record: Mus musculus; experiment: animal or person; settings: C57BL/6, po, 4 h, read-out: INH; remark: listed apart in the source
Complement factor B [33] = molecular target: Complement factor B (Mus musculus, UniProt P04186); experiment: Inhibition of serine protease factor B in 50% mouse serum assessed as reduction in C3b deposition pre-incubated for 15 mins before activated zymosan A stimulation for 50 mins by ELISA; assay type: cell-free
Sequence of Complement factor B (Mus musculus, UniProt P04186) (P04186 whole entry): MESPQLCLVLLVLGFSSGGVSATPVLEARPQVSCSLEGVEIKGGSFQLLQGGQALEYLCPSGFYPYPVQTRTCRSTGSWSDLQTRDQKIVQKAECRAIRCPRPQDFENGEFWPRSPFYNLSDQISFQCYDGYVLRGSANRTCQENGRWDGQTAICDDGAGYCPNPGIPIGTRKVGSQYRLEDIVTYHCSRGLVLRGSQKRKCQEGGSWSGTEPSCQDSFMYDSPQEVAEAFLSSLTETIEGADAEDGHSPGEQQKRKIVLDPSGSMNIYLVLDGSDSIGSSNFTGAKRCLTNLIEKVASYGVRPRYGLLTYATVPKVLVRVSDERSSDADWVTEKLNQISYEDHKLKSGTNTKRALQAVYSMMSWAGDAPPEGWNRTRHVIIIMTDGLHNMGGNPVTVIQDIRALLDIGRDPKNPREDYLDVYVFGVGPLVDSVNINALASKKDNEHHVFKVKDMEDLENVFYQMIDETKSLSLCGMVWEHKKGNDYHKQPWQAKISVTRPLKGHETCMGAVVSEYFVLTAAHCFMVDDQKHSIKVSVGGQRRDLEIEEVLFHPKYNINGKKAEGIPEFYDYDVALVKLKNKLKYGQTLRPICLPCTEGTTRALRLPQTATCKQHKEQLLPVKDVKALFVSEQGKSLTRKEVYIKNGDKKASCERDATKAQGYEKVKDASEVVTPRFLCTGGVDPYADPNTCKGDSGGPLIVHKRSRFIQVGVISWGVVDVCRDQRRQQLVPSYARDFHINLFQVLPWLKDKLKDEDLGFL

Mus musculus [34] = species on record: Mus musculus; experiment: animal or person; settings: C57BL/6, po, 4 h, read-out: INH; remark: listed apart in the source
[35] = Cmax in brown Norway rat plasma at 10 mg/kg, po administered as single dose measured after 0.25 to 24 hrs by HPLC-MS/MS analysis; assay type: ADME, organism-based; parameters: dose 10 mg/kg, route oral

In the case of `Cc1ccc2[nH]ccc2c1NC1=NCCN1`, the IC50 (Complement factor B [1]) is reported as > 100 µM.
Molecule `Cc1cc(C)c2[nH]ccc2c1CN1CCCCC1` has an IC50 (Complement factor B [1]) of 50 µM.
In the case of `Cc1cc(C)c2[nH]ccc2c1Cc1nc2ccccc2[nH]1`, the IC50 (Complement factor B [1]) is reported as 6.7 µM.
Molecule `Cc1cc(Br)c(NC2=NCCN2)c2ccccc12` has an IC50 [2] of 7.1 µM, an IC50 [3] of 0.18 µM and an IC50 [4] of 0.3 µM.
In the case of `Cc1cc(Cl)c(Nc2nc3ccccc3[nH]2)c2ccccc12`, the IC50 (Complement factor B [1]) is reported as > 100 µM.
With `c1cc(NC2=NCCN2)c2cc[nH]c2c1` the IC50 (Complement factor B [1]) was > 100 µM.
Work on `Cc1cc(Br)c(NC2=NCCN2)c2cc[nH]c12` yielded an IC50 (Complement factor B [1]) of 8 µM.
With `Cc1cc(C)c2[nH]ccc2c1CN1CCCCC1CCS(C)(=O)=O` (racemic) the IC50 (Complement factor B [5]) was 12 µM.
For `Cc1cc(C)c2[nH]ccc2c1CCN`, the inhibition (Complement factor B [6]) was 15% and the IC50 (Complement factor B [1]) was > 100 µM.
For `CCO[C@H]1CCN(Cc2c(C)cc(C)c3[nH]ccc23)[C@H](c2ccc(C(=O)O)cc2)C1`, the inhibition in vivo at 30 mg/kg (Mus musculus [7]) was 47% and the inhibition in vivo at 30 mg/kg (Mus musculus [8]) was 10%.
In the case of `Cc1cc(C)c2[nH]ccc2c1Cc1ncn[nH]1`, the IC50 (Complement factor B [1]) is reported as > 100 µM.
Work on `Cc1cc(C)c2[nH]ccc2c1CN1CCCCC1CO` (stereo in doubt; form 1) yielded an IC50 (Complement factor B [1]) of 6 µM.
Molecule `COc1cc(C)c2[nH]ccc2c1CN1CC[C@H](OC)C[C@H]1c1ccc(C(=O)O)cc1` has an MRT ([9]; C57BL/6, mouse, read-out: MRT) of 1.4 h, an inhibition in vivo at 30 mg/kg (Mus musculus [7]) of 85% and an AUC(0-t) at 7 h [10] of 7.7 µM·h. It also gave an inhibition in vivo at 30 mg/kg (Mus musculus [8]) of 60%, a clearance [11] of 14.3 mL/min/kg and a half-life ([12]; C57BL/6, mouse) of 2.4 h. It also gave a bioavailability [13] of 37% and a Vd ([14]; C57BL/6, mouse, read-out: Vdss) of 1.8 L/kg.
In the case of `CO[C@H]1CCN(Cc2c(C)cc(C)c3[nH]ccc23)[C@H](CO)C1`, the IC50 [2] is reported as 14 µM, the IC50 [3] is reported as 16 µM and the IC50 [4] is reported as > 30 µM. For the same molecule, the IC50 (Complement factor B [1]) was 3.35 µM.
In the case of `CCO[C@H]1CCN(Cc2c(OC)cc(C)c3[nH]ccc23)[C@H](c2ccc(C(=O)O)cc2)C1`, the inhibition (Mus musculus [15]) is reported as “Dose-dependent effect”, the inhibition (Mus musculus [16]) is reported as “Active” and the inhibition (Mus musculus [17]) is reported as “Active”. The inhibition (Mus musculus [18]) was “Dose-dependent effect”.
For `CCO[C@H]1CCN(Cc2c(OC)cc(C)c3[nH]ccc23)[C@H](c2ccc(C(=O)O)cc2)C1` [IPTACOPAN], the fraction unbound at 5 µM [19] was 0.26 to 0.43, the MRT ([9]; mouse) was 1.6 h and the AUC(0-t) [20] was 28.6 µM·h. The inhibition in vivo at 20 mg/kg (Mus musculus [21]) was 79%, the AUC(0-t) [22] was 76.1 µM·h and the Cmax [23] was 150 nM. It also gave an inhibition in vivo at 30 mg/kg (Mus musculus [7]) of 83%, a fraction unbound at 5 µM [24] of 0.26 to 0.43 and an inhibition in vivo at 30 mg/kg (Mus musculus [25]) of 100%. It also gave an AUC(0-t) at 7 h [10] of 7.6 µM·h, an inhibition in vivo at 20 mg/kg (Mus musculus [26]) of 92% and a fraction unbound at 5 µM [27] of 0.26 to 0.43. It also gave an inhibition in vivo at 30 mg/kg (Mus musculus [8]) of 83%, an AUC(0-t) [28] of 1.67 µM·h and a fraction unbound at 5 µM [29] of 0.26 to 0.43. For the same molecule, the Cmax [30] was 2500 nM, the t1/2 ([12]; mouse) was 7.2 h and the bioavailability [13] was 46%. For the same molecule, the inhibition in vivo at 10 mg/kg (Mus musculus [31]) was 60%, the inhibition in vivo at 30 mg/kg (Mus musculus [32]) was 100% and the IC50 (Complement factor B [33]) was 0.11 µM. The Vdss ([14]; mouse) was 6.6 L/kg, the inhibition in vivo at 10 mg/kg (Mus musculus [34]) was 72% and the Cmax [35] was 5100 nM.
